Patent US7951385B2, “Probiotic strain and antimicrobial peptide derived therefrom” (Cipla Medpro Research and Development (Pty) Ltd., priority 2006, dated 2011)

Legend:
[1] = tested on: Lactobacillus casei LHS; assay: Effect of enzymes, temperature, pH and detergents on antimicrobial activity of peptide ST4SA; type: physicochemical; set-up: key: − = no activity; + = activity zones of at least 5 mm in diameter
Method: Antimicrobial activity was expressed as arbitrary units (AU) per ml cell-free supernatant. One AU is defined as the reciprocal of the highest dilution showing a clear zone of growth inhibition and is calculated as follows:
a^b×100, where “a” represents the dilution factor and “b” the last dilution that produces an inhibition zone of at least 2 mm in diameter. Activity is expressed per ml by multiplication with 100. Lactobacillus casei LHS was used as indicator strain.
The cells were harvested (8 000×g, 4° C., 15 min) and the cell-free supernatants adjusted to pH 6.0 with 6M NaOH. One ml of each supernatant was treated with catalase (Boehringer Mannheim) at 0.1 mg/ml (final concentration), Proteinase K (Roche, Indianapolis, Ind., USA), pronase, papain, pepsin and trypsin (Boehringer Mannheim GmbH, Germany), at 1 mg/ml and 0.1 mg/ml (final concentration), respectively. After incubation the enzymes were heat-inactivated (3 min at 100° C.) and tested for antimicrobial activity, as described before.
Aliquots of peptide ST4SA were exposed to heat treatments of 30° C., 60° C. and 100° C. for 10, 30 and 90 min, respectively, and 121° C. for 20 min (Table 3). The samples were then tested for antimicrobial activity, as described before.
In a separate experiment, samples of peptide ST4SA were adjusted to pH values ranging from 2-12, incubated at 37° C. for 30 min, neutralised to pH 7, and then tested for antimicrobial activity (Table 3).

[2] = tested on: Pseudomonas sp. isolated from infected middle-ear fluid; assay: Activity on paper disks and comparison with antibiotics (inhibition zones); type: cell-based
Method: Activity was tested against a Pseudomonas sp. isolated from infected middle-ear fluid.

[3] = tested on: Enterococcus spp. HKLHS; assay: Extracellular DNA after treatment of pathogens with peptide ST4SA; type: cell-based; settings: Control organism Enterococcus spp. HKLHS
Description: (§1) Further evidence of cell membrane damage and leakage of cellular constituents was obtained by testing for extracellular DNA and extracellular β-galactosidase activity.

[4] = tested on: Klebsiella pneumoniae; assay: as above; type: cell-based; settings: Klebsiella pneumoniae 30
Description: as §1

[5] = tested on: Middle ear isolates (unknown); assay: as above; type: cell-based
Description: as §1

[6] = tested on: Pseudomonas auringinosa; assay: as above; type: cell-based; settings: Pseudomonas auringinosa E
Description: as §1

[7] = tested on: Staphylococcus aureus; assay: as above; type: cell-based; settings: Staphylococcus aureus 36
Description: as §1

[8] = tested on: Streptococcus pneumoniae; assay: as above; type: cell-based
Description: as §1

[9] = tested on: Streptococcus pyogenes; assay: as above; type: cell-based; settings: Streptococcus pyogenes 20
Description: as §1

[10] = tested on: Enterococcus spp. HKLHS; assay: β-galactosidase leakage after treatment of pathogens with peptide ST4SA; type: cell-based; settings: Control organism Enterococcus spp. HKLHS
Description: as §1

[11] = tested on: Klebsiella pneumoniae; assay: as above; type: cell-based; settings: Klebsiella pneumoniae 30
Description: as §1

[12] = tested on: Middle ear isolates (unknown); assay: as above; type: cell-based
Description: as §1

[13] = tested on: Staphylococcus aureus; assay: as above; type: cell-based; settings: Staphylococcus aureus 36
Description: as §1

[14] = tested on: Streptococcus pneumoniae; assay: as above; type: cell-based
Description: as §1

[15] = tested on: Streptococcus pyogenes; assay: as above; type: cell-based; settings: Streptococcus pyogenes 20
Description: as §1

[16] = tested on: pathogens (Streptococcus pneumoniae, Klebsiella pneumoniae, middle ear isolates); assay: Cell lysis / growth inhibition of pathogens in BHI broth; type: cell-based; settings: peptide added at mid-exponential phase, BHI broth (FIGS. 15 to 23)
Method: A 0.2% (v/v) inoculum of an overnight pathogen was inoculated into BHI broth. Peptide ST4SA was added to each pathogen at mid-exponential phase.

[17] = tested on: Lactobacillus sakei DSM 20017; assay: Blocking of the Lipid II target site with vancomycin; type: cell-based; settings: L. sakei DSM 20017, FIG. 26
Description: To test this hypothesis, the Lipid II target site of Lactobacillus sakei DSM 20017 (sensitive to peptide ST 4SA) was blocked with vancomycin (see schematic presentation, FIG. 26). Vancomycin adheres to the amino acid side chain of the Lipid II molecule, which would, theoretically, prevent peptide ST4SA from binding to the same site (that is if Lipid II acts as receptor). […] The fact that peptide ST4SA binds to more than one anchoring site on the sensitive cell may explain why it has such a broad spectrum of antimicrobial activity (inhibitory to Gram-positive and Gram-negative bacteria).

Substance: Peptide ST4SA: broad-spectrum antibacterial peptide (bacteriocin) produced by Enterococcus mundtii strain ST4SA, SEQ. ID. NO. 12 (MSQVVGGKYYGNGVSCNKKGCSVDWGKAIGIIGNNSAANLATGGAAGWKS; ENTEROCOCCUS MUNDTII ST4SA)
- Antimicrobial activity after treatment ([1]; Detergents (1%): SDS): + (+ = activity zones of at least 5 mm in diameter)
- Antimicrobial activity after treatment ([1]; Detergents (1%): Triton X-100): + (+ = activity zones of at least 5 mm in diameter)
- Antimicrobial activity after treatment ([1]; Detergents (1%): Triton X-114): −
- Antimicrobial activity after treatment ([1]; Detergents (1%): Tween 20, Tween 80): + (+ = activity zones of at least 5 mm in diameter)
- Antimicrobial activity after treatment ([1]; Detergents (1%): urea): + (+ = activity zones of at least 5 mm in diameter)
- Antimicrobial activity after treatment ([1]; EDTA: 0.1 mM, 1.0 mM, 2.0 mM): + (+ = activity zones of at least 5 mm in diameter)
- Antimicrobial activity after treatment ([1]; Enzymes: Proteinase K): −
- Antimicrobial activity after treatment ([1]; Enzymes: pepsin): −
- Antimicrobial activity after treatment ([1]; Enzymes: pronase): −
- Antimicrobial activity after treatment ([1]; Enzymes: α-amylase): + (+ = activity zones of at least 5 mm in diameter)
- Antimicrobial activity after treatment ([1]; Heat: 30, 60, 100° C. for 10 min): + (+ = activity zones of at least 5 mm in diameter)
- Antimicrobial activity after treatment ([1]; Heat: 30, 60, 100° C. for 30 min): + (+ = activity zones of at least 5 mm in diameter)
- Antimicrobial activity after treatment ([1]; Heat: 30, 60, 100° C. for 90 min): + (+ = activity zones of at least 5 mm in diameter)
- Antimicrobial activity after treatment ([1]; Heat: 121° C. for 20 min): −
- Antimicrobial activity after treatment ([1]; pH 2.0-12.0, 37° C. for 30 min, neutralised to pH 7): + (+ = activity zones of at least 5 mm in diameter)
- Antimicrobial activity after treatment ([1]; proteolytic enzyme papain): inactivated
- Antimicrobial activity after treatment ([1]; proteolytic enzyme trypsin): inactivated
- Diameter of inhibition zones ([2]; Ampicillin 10 μg, Bacitracin 10 units, Chloramphenicol 30 μg, Erythromycin 15 μg, Tetracycline 30 μg, peptide on paper disk): 25 mm
- Activity of peptide ST4SA on paper disks ([2]; Freeze dried): 409600 AU/ml
- Activity of peptide ST4SA on paper disks ([2]; Paper disk (0.6 cm diameter)): 20263 AU/ml
- Activity of peptide ST4SA on paper disks ([2]; Paper disk (2 cm × 2 cm; 700 μl)): 286720 AU/ml
- DNA-leakage (O.D. readings at 260 nm) [3]: 1.395
- DNA-leakage (O.D. readings at 260 nm) [4]: 1.01
- DNA-leakage (O.D. readings at 260 nm) ([5]; Middle ear isolate 40): 0.801
- DNA-leakage (O.D. readings at 260 nm) ([5]; Middle ear isolate BW): 1.186
- DNA-leakage (O.D. readings at 260 nm) ([5]; Middle ear isolate DW): 1.153
- DNA-leakage (O.D. readings at 260 nm) ([5]; Middle ear isolate F): 1.428
- DNA-leakage (O.D. readings at 260 nm) ([5]; Middle ear isolate GW): 0.751
- DNA-leakage (O.D. readings at 260 nm) ([5]; Middle ear isolate HW): 1.559
- DNA-leakage (O.D. readings at 260 nm) ([5]; Middle ear isolate K): 0.455
- DNA-leakage (O.D. readings at 260 nm) ([5]; Middle ear isolate L): 0.592
- DNA-leakage (O.D. readings at 260 nm) ([5]; Middle ear isolate M): 0.326
- DNA-leakage (O.D. readings at 260 nm) [6]: 0.187
- DNA-leakage (O.D. readings at 260 nm) [7]: 0.892
- DNA-leakage (O.D. readings at 260 nm) ([8]; Streptococcus pneumoniae 27): 1.670
- DNA-leakage (O.D. readings at 260 nm) ([8]; Streptococcus pneumoniae 29): 1.182
- DNA-leakage (O.D. readings at 260 nm) ([8]; Streptococcus pneumoniae D): 1.160
- DNA-leakage (O.D. readings at 260 nm) [9]: 0.930
- β-galactosidase recorded at OD420 [10]: No leakage
- β-galactosidase recorded at OD420 [11]: No leakage
- β-galactosidase recorded at OD420 ([12]; Middle ear isolate BW): 0.370
- β-galactosidase recorded at OD420 ([12]; Middle ear isolate DW): 0.293
- β-galactosidase recorded at OD420 ([12]; Middle ear isolate F): 0.318
- β-galactosidase recorded at OD420 ([12]; Middle ear isolate GW): 0.373
- β-galactosidase recorded at OD420 ([12]; Middle ear isolate HW): 0.235
- β-galactosidase recorded at OD420 ([12]; Middle ear isolate K): No leakage
- β-galactosidase recorded at OD420 ([12]; Middle ear isolate L): No leakage
- β-galactosidase recorded at OD420 ([12]; Middle ear isolate M): No leakage
- β-galactosidase recorded at OD420 [13]: No leakage
- β-galactosidase recorded at OD420 ([14]; Streptococcus pneumoniae 27): No leakage
- β-galactosidase recorded at OD420 ([14]; Streptococcus pneumoniae 29): No leakage
- β-galactosidase recorded at OD420 ([14]; Streptococcus pneumoniae D): No leakage
- β-galactosidase recorded at OD420 [15]: No leakage
- Mode of action on pathogens [16]: acted in a bactericidal manner against most pathogens
- Effect on target cells after blocking Lipid II with vancomycin [17]: resulted in growth inhibition
